In patent US20160304957A1, “TREATMENT AND MODULATION OF GENE EXPRESSION AND SKIN AGING” (DSM NUTRITIONAL PRODUCTS LTD., priority 2006, published 2016):

System: HaCaT human keratinocytes
Test: Affymetrix GeneChip microarray, transcriptional response to β-carotene and/or UVA
Type: cell-based
Conditions: β-carotene 1.5 μM, unirradiated
Method: The cell culture experiments were carried out as described. Briefly, a subclone of passage 65 HaCaT keratinocytes, selected for differentiation capacity, was used at passages 16 to 23 after subcloning. 2×10^5 cells were seeded per 60 millimeter dish. Starting the following day, the cells were pretreated for 2 days with β-carotene at 1.5 μM, a typical concentration in human plasma after moderate dietary supplementation)
β-carotene-containing medium was prepared as follows. Fresh all-E-β-carotene (DSM Nutritional Products, Kaiseraugst, Switzerland) stock solution in THF (containing 0.025% BHT; Fluka Chemie A G, Switzerland) was diluted 1:2 with ethanol and added to cell culture medium to a final concentration of 1.5 μM β-carotene. The solvent concentration in the medium was 0.5% for all treatments. β-carotene-containing medium was prepared fresh for the daily medium changes.
On day 3 of the experiment, the cells were irradiated with a Hönle sun lamp Sol 500 (270 kJ/m^2; Dr. Hönle, Germany).
Five independent, factorially designed cell irradiation experiments were analyzed by microarray hybridization. For each experiment, one chip was hybridized per treatment condition. GeneChip® analysis was done as described in [132], which is incorporated by reference, as if recited in full herein. Gene regulation by β-carotene and/or UVA was calculated relative to placebo.
Changes in gene expression were included in further analysis only if the change factor was […], and if unpaired t-tests yielded p values≦0.05. Upregulations by a […] are labeled bold, downregulations by a change factor of […] are labeled bold italics. (Table 1) To identify the pathways affected by the treatments functional information on the genes was retrieved from public literature databases.

CC1=C(/C=C/C(C)=C/C=C/C(C)=C/C=C/C=C(C)/C=C/C=C(C)/C=C/C2=C(C)CCCC2(C)C)C(C)(C)CCC1 [β-carotene, All-E-β-carotene]
N-RAS (X02751) change factor: −1.2 | NCF2; p67-phox; neutrophil oxidase factor (M32011) change factor: −0.8 | NF-κB subunit (S78771) change factor: −0.1 | NF-κB subunit (X61498) change factor: −0.07 | NFκB; p50 (S76638) change factor: −0.46 | NOL1; p120 nucleolar antigen (X55504) change factor: 0.04 | NOTCH3 (U97669) change factor: −0.8 | NOV (X96584) change factor: −0.7 | NOXA (D90070) change factor: −0.26 | NRF1 (L24123) change factor: −0.27 | NRF2, subunit beta 1 (U13045) change factor: −1.5 | OSR1; oxidative-stress responsive 1 (AB017642) change factor: −0.18 | PAR-1; thrombin receptor (M62424) change factor: −0.5 | PAR-2; proteinase activated receptor-2 (U34038) change factor: −0.27 | PAR-2; proteinase activated receptor-2 (U34038, second entry) change factor: −0.03 | PAR-2; proteinase activated receptor-2 (U67058) change factor: 0.03 | PAR-4; protease-activated receptor 4 (AF055917) change factor: −0.49 | RAIDD; death adaptor molecule (U79115) change factor: −0.22 | RB1 (L49229) change factor: −0.8 | RB2/p130 (X74594) change factor: −0.6 | RETSDR1; retinal short-chain dehydrogenase/reductase (AF061741) change factor: 1.1 | RPA; replication protein A 14 kda subunit (rpa) (L07493) change factor: −0.04 | RXRα (U66306) change factor: −0.2 | RXRα (X52773) change factor: −0.2 | Requiem (AF001433) change factor: 0.5 | SMAD 1 (U59423) change factor: −0.27 | SMAD3 (U68019) change factor: 0.5 | SMAD3 (U68019, second entry) change factor: 0.18 | SMAD4 (U44378) change factor: −0.7 | SMAD5 (U59913) change factor: −0.9 | SMAD6 (AF035528) change factor: −0.47 | SMAD7 (AF010193) change factor: −0.19 | SMRT (U37146) change factor: −0.33 | STK15; BTAK (AF011468) change factor: −0.18 | TDAG51; PQ-rich protein; PHLDA1 (Z50194) change factor: 0.27 | TGFβ; transforming growth factor β (X02812) change factor: 0.9 | TIAR; nucleolysin tiar (M96954) change factor: −0.45 | TIEG, EGRα (AF050110) change factor: −0.8 | TLR3; toll-like receptor 3 (U88879) change factor: 0.6 | TOP2; topoisomerase II (J04088) change factor: −0.22 | TRADD; TNF receptor-1 associated protein (L41690) change factor: 0.23 | TRAIL; TNF-related apoptosis inducing ligand (U37518) change factor: 0.15 | TRIP14; ‘2-5’ oligoadenylate synthetase (AJ225089) change factor: −0.07 | TRIP (U77845) change factor: −0.06 | TSSC3 (AF035444) change factor: −0.44 | TSSC3/IPL (AF001294) change factor: −0.6 | VEGF (AF022375) change factor: −0.5 | VEGF (AF024710) change factor: 0.02 | VEGF (M63978) change factor: −0.48 | VEGFR2; VEGF receptor 2; KDR; FLK-1kdr/flk-1 (AF035121) change factor: 0.6 | WEE1 (X62048) change factor: −0.6 | WNT5A (I20861) change factor: −0.47 | WNT5A (I20861, second entry) change factor: −1.7 | XRCC4 (U40622) change factor: −0.05 | bFGF; basic fibroblast growth factor; FGF2 (M27968) change factor: 0.1 | bilirubin udp-glucuronosyltransferase isozyme 2 (M57951) change factor: −0.25 | bullous pemphigoid autoantigen bp180 (M91669) change factor: −0.45 | c-myc (V00568) change factor: 0.1 | c-myc (V00568, second entry) change factor: 0.1 | c-myc binding protein (mbp-1) (M55914) change factor: 0.5 | caspase 2, ICH-1S (U13022) change factor: −0.31 | caspase 7 (U67319) change factor: −0.09 | ceruloplasmin (ferroxidase) (M13699) change factor: 1 | collagen type IV, α-2 (COL4A2) (X05610) change factor: −0.13 | collagen type IV, α-5 (COL4A5) (M58526) change factor: −0.8 | collagen type IV, α-6 (COL4A6) (D21337) change factor: −0.44 | collagen type VII, α-1 (COL7A1) (L02870) change factor: −0.21 | connexin 31 (AF099730) change factor: 0.17 | connexin 45 (U03493) change factor: −0.06 | coproporphyrinogen oxidase (D16611) change factor: −0.21 | cyclin E2 (AF091433) change factor: −0.25 | cyclin E (M73812) change factor: −0.23 | desmocollin type 4 (D17427) change factor: −1.3 | ferritin heavy chain (L20941) change factor: 0.36 | frizzled-2 (I37882) change factor: −0.03 | frizzled-6 (AB012911) change factor: −0.5 | haemochromatosis protein (hla-h) (U60319) change factor: 0.15 | hsp40; heat shock protein 40 (U40992) change factor: −0.6 | integrin α6 (X53586) change factor: −1.1 | integrin α6b (S66213) change factor: −0.9 | integrin α6b (S66213, second entry) change factor: −1.3 | jagged2 (jag2) (AF029778) change factor: −0.02 | keratin 2e (KRT2E); Keratin 2A (AF019084) change factor: −0.46 | keratin 5 (M21389) change factor: 0.9 | keratin 15 (J00124) change factor: 1 | keratin 16 (M28439) change factor: −2 | keratin 17 (Z19574) change factor: 0.04 | mKI67a mrna (long type) for antigen of monoclonal antibody KI-67 (X65550) change factor: −0.3 | mKI67a mrna (long type) for antigen of monoclonal antibody KI-67 (X65550, second entry) change factor: −0.17 | ornithine decarboxylase (M33764) change factor: −0.2 | ornithine decarboxylase (X16277) change factor: −0.32 | p21; wild-type p53 activated fragment-1 (WAF1) (U03106) change factor: −0.5 | p33; ING1b (AB024401) change factor: −0.47 | p160ROCK (U43195) change factor: −0.28 | protoporphyrinogen oxidase (D38537) change factor: −0.32 | rTS α (X67098) change factor: 0.13 | serpinB1 (M93056) change factor: 0.7 | stimulator of Fe transport (AF020761) change factor: 0.03 | thioredoxin reductase (X91247) change factor: −0.08 | thymidylate synthase (X02308) change factor: −0.12 | transferrin receptor (X01060) change factor: −0.05 | uroporphyrinogen III synthase (J03824) change factor: −0.15 | α topoisomerase truncated-form (L47276) change factor: −0.43
